Measurements published in patent US9770026B2, “Substituted pyrimidine compound and uses thereof” (Shenyang Sinochem Agrochemicals R&D Co., Ltd., priority 2012, dated 2017).

Key:
carmine spider mite = experiment: bioactivity test against carmine spider mite, airbrush spray; format: in vivo; settings: for Insecticidal activity against carmine spider mite (% ): contrastive test; for control against carmine spider mite: 600 ppm, mortality after 72 hrs
Protocol: (§1) Compounds were dissolved in mixed solvent (acetone:methanol=1:1), and diluted to required concentration with water containing 0.1% of tween 80.
(§2) Diamond back moth, armyworm, peach aphid and carmine spider mite were used as targets and the method of spraying by airbrush was used for determination of insecticidal biassays.
The method: Broadbean shoots with two true leaves in pot were taken, the healthy adults of carmine spider mite were inoculated to the leaves. The adults were counted and then sprayed with airbrush at the pressure of 0.7 kg/cm^2 and at dose of 0.5 ml. 3 replicates were set for each treatment. And then they were maintained in standard observation room. Scores were conducted and mortalities were calculated after 72 hrs.

wheat powdery mildew = experiment: protectant activity in vivo against wheat powdery mildew; settings: for control effect against wheat powdery mildew (%): protectant activity
corn rust = experiment: protectant activity in vivo against corn rust; settings: for control effect against corn rust (%): protectant activity
[1] = test system: Green peach aphids (Myzus Persicae Sulzer); experiment: bioactivity test against green peach aphid, airbrush foliar spray; format: in vivo; settings: for Insecticidal activity against peach aphid (%): contrastive test; for control (test results against green peach aphid): death rate after 48 hrs
Protocol: as §1, §2
Method: Filter papers were put in culture dishes (Diameter=6 cm), and water was dripped on filter papers for preserving moisture. Green peach aphids (Myzus Persicae Sulzer) were maintained on cabbage. Leaves (Diameter=3 cm) of approximately 15-30 aphids were put in the culture dishes. Bioactivity tests were used the method of Airbrush Foliar Spray, pressure=10 psi (0.7 kg/cm2), spray volume=0.5 mL. The studies were conducted at […] 25±1 C in incubator cabinets with 60±5% RH. Survey the survival aphids after 48 hrs and calculate the death rates.

cucumber downy mildew = experiment: protectant activity in vivo against cucumber downy mildew; settings: for control effect against cucumber downy mildew (%): protectant activity

SMILES | control against carmine spider mite (carmine spider mite) | protectant activity against wheat powdery mildew in vivo (wheat powdery mildew; 100 ppm) | protectant activity against wheat powdery mildew in vivo (wheat powdery mildew; 400 ppm) | protectant activity against corn rust in vivo (corn rust; 400 ppm) | control (test results against green peach aphid) ([1]; 100 ppm) | control (test results against green peach aphid) ([1]; 600 ppm) | protectant activity against cucumber downy mildew in vivo (cucumber downy mildew; 100 ppm) | protectant activity against cucumber downy mildew in vivo (cucumber downy mildew; 400 ppm) | control effect against cucumber downy mildew (%) (cucumber downy mildew; 25 mg/L) | control effect against cucumber downy mildew (%) (cucumber downy mildew; 50 mg/L) | control effect against cucumber downy mildew (%) (cucumber downy mildew; 100 mg/L) | control effect against cucumber downy mildew (%) (cucumber downy mildew; 400 mg/L) | protectant activity against cucumber downy mildew in vivo (cucumber downy mildew; 25 ppm) | protectant activity against cucumber downy mildew in vivo (cucumber downy mildew; 50 ppm) | control effect against cucumber downy mildew (%) (cucumber downy mildew; 12.5 mg/L) | further results
CC(F)c1ncnc(NCCc2ccc(Oc3ncc(C(F)(F)F)cc3Cl)cc2)c1Cl (stereo not drawn) [CK2, reference compound] |  |  |  |  |  |  |  |  |  |  |  |  |  |  |  | Insecticidal activity against carmine spider mite (% ) (carmine spider mite; 10 mg/L): 32%; Insecticidal activity against carmine spider mite (% ) (carmine spider mite; 100 mg/L): 100%; Insecticidal activity against carmine spider mite (% ) (carmine spider mite; 600 mg/L): 100%; control effect against wheat powdery mildew (%) (wheat powdery mildew; 6.25 mg/L): 0%; control effect against wheat powdery mildew (%) (wheat powdery mildew; 25 mg/L): 80%; control effect against wheat powdery mildew (%) (wheat powdery mildew; 100 mg/L): 100%; control effect against wheat powdery mildew (%) (wheat powdery mildew; 400 mg/L): 100%; control effect against corn rust (%) (corn rust; 6.25 mg/L): 85%; control effect against corn rust (%) (corn rust; 25 mg/L): 100%; control effect against corn rust (%) (corn rust; 100 mg/L): 100%; control effect against corn rust (%) (corn rust; 400 mg/L): 100%; Insecticidal activity against peach aphid (%) ([1]; 1.25 mg/L): 0%; Insecticidal activity against peach aphid (%) ([1]; 2.5 mg/L): 23%; Insecticidal activity against peach aphid (%) ([1]; 5 mg/L): 37%; Insecticidal activity against peach aphid (%) ([1]; 10 mg/L): 95%; Insecticidal activity against peach aphid (%) ([1]; 100 mg/L): 100%; Insecticidal activity against peach aphid (%) ([1]; 600 mg/L): 100%
CCOC(=O)c1ccc(Oc2ccc(CCNc3ncnc(CC)c3Cl)cc2)nc1 [Compound I-267] | 100% | 100% | 100% | 100% | 100% | 100% |  |  |  |  |  |  |  |  |  | control (test results against green peach aphid) ([1]; 10 ppm): 100%
CCc1ncnc(NCCc2ccc(Oc3ncc(C(F)(F)F)cc3Cl)cc2)c1Cl [Compound I-602] | 100% | 100% | 100% |  | 100% | 100% | 100% | 100% |  |  |  |  |  |  |  | 
Cc1ncnc(NCCc2ccc(Oc3ccccc3Cl)nc2)c1Cl [III-5] | 100% |  | 100% |  |  | 100% | 100% | 100% | 100% | 100% | 100% | 100% | 100% | 100% |  | 
Cc1ncnc(NCCc2ccc(Oc3ccc(Cl)cc3Cl)nc2)c1Cl [III-82] |  |  | 100% | 100% |  | 100% | 100% | 100% | 100% | 100% | 100% | 100% | 100% | 100% | 98% | 
CCc1ncnc(NCCc2ccc(Oc3ccc(Cl)cc3Cl)nc2)c1Cl [III-262] |  |  | 100% | 100% | 100% | 100% | 100% | 100% | 100% | 100% | 100% | 100% | 100% | 100% |  | control effect against corn rust (%) (corn rust; 0.4 mg/L): 60%; control effect against corn rust (%) (corn rust; 1.6 mg/L): 90%; control effect against corn rust (%) (corn rust; 6.25 mg/L): 90%; control effect against corn rust (%) (corn rust; 25 mg/L): 100%; control effect against corn rust (%) (corn rust; 100 mg/L): 100%; control effect against corn rust (%) (corn rust; 400 mg/L): 100%; protectant activity against corn rust in vivo (corn rust; 25 ppm): 100%; protectant activity against corn rust in vivo (corn rust; 100 ppm): 100%
CCc1ncnc(NCCc2ccc(Oc3ccc(C(F)(F)F)cc3Cl)nc2)c1Cl [III-301] |  | 100% | 100% | 100% | 100% | 100% | 100% | 100% | 100% | 100% | 100% | 100% | 100% | 100% | 100% | control effect against cucumber downy mildew (%) (cucumber downy mildew; 6.25 mg/L): 100%; protectant activity against cucumber downy mildew in vivo (cucumber downy mildew; 6.25 ppm): 100%; protectant activity against cucumber downy mildew in vivo (cucumber downy mildew; 12.5 ppm): 100%; protectant activity against corn rust in vivo (corn rust; 100 ppm): 100%; Insecticidal activity against peach aphid (%) ([1]; 10 mg/L): 100%; Insecticidal activity against peach aphid (%) ([1]; 100 mg/L): 100%; Insecticidal activity against peach aphid (%) ([1]; 600 mg/L): 100%; control (test results against green peach aphid) ([1]; 10 ppm): 100%
COc1ccc(Oc2ccc(CCNc3nc(C)nc(Cl)c3Cl)cn2)cc1 [III-2539] | 100% |  |  | 100% |  | 100% | 100% | 100% | 100% | 100% | 100% | 100% | 100% | 100% | 85% | 
